Assay results reported in patent US8192962B2, “Processes for detecting toxic substances” (Daikin Industries, Ltd., priority 2001, dated 2012).

Tested on: Mitochondria-located protein genes
Assay: DNA chip mRNA expression in yeast, mitochondria-located protein genes (Table 2)
Type: cell-based, Saccharomyces cerevisiae S288C
Details: cells incubated two hours with the chemical substance
Protocol: Yeast (Saccharomyces cerevisiae S288C (α SUC2mal mel gap2 CUP1)) were incubated at 25° C. on YPD medium (yeast extract 1%, polypepton 2%, glucose 2%). One of toxic chemical substances was added to the cells at logarithmic growth phase, and the cells were further incubated for two hours. Cells were cultured without any chemical substance in the same condition, and were used as control. Concentrations of the chemical substances were defined to inhibit the growth of the yeast but not lead to death.
After completion of the incubation, the culture was centrifuged to collect the cells. To the cells, sodium acetate buffer (50 mM sodium acetate, 10 mM EDTA, 1% SDS) was added, and the mixture was shaken at 65° C. for five minutes, followed by returning to room temperature, and obtaining the supernatant, of which the procedures were repeated two times. To the supernatant, ½ amount of a solution of phenol/chloroform was added, and the mixture was centrifuged to give a supernatant, which was added with an equal amount of chloroform, and the mixture was centrifuged to give a supernatant. To the supernatant, an equal amount of isopropanol containing 0.3 M sodium acetate was added, and the mixture was allowed to stand at room temperature for 30 minutes, after which the mixture was centrifuged to give a sediment of the whole RNAs. Seventy % ethanol was added to the sediment, and the mixture was again centrifuged to give a sediment, which was then dried and dissolved in water. mRNA was isolated from the whole RNAs as followings. In view of the fact that a poly A chain is attached to the 3′ terminus of mRNA, a polynucleotide having a poly T structure which was immobilized on the surface of latex beads was used to trap the mRNA, and then the mRNA was washed and eluted with spine column (Oligotex-dT30<Super>mRNA Purification Kit, Takara). Reverse transcription of the mRNA was conducted with a reverse transcriptase (Super Script II Reverse Transcriptase; catalogue No. 18064-014, GibcoBRL) using fluorescence-labeled nucleotides to give cDNAs that were introduced with Cy3-dUTP or Cy5-dUTP during the reverse transcription.
The labeled cDNAs were dissolved in TE buffer (10mM Tris-HCl/1 mM EDTA, pH8.0), and the solution was dropped on the DNA chip containing the whole genes of yeast (DNA Chip Research Inc. Japan) so that the cDNAs were hybridized on the DNA chip at 65° C. for over 12 hours. The fluoresces intensity of the DNA chip was read with a scanner, and the ratio relative to the fluorescence intensity resulting from the absence of chemical substance was estimated as the following, which is shown in Tables 1 to 9: […]

Structure (SMILES): [Cl][Cd][Cl] [(2), CdCl2]
- The level of expressed mRNA in the presence of chemical substance/The level of expressed mRNA in the absence of chemical substance (yeast gene YAL039C): 2.2
- The level of expressed mRNA in the presence of chemical substance/The level of expressed mRNA in the absence of chemical substance (yeast gene YBL022C): 0.8
- The level of expressed mRNA in the presence of chemical substance/The level of expressed mRNA in the absence of chemical substance (yeast gene YBL030C): 0.9
- The level of expressed mRNA in the presence of chemical substance/The level of expressed mRNA in the absence of chemical substance (yeast gene YBL038W): 0.9
- The level of expressed mRNA in the presence of chemical substance/The level of expressed mRNA in the absence of chemical substance (yeast gene YBL099W): 0.9
- The level of expressed mRNA in the presence of chemical substance/The level of expressed mRNA in the absence of chemical substance (yeast gene YBR003W): 0.8
- The level of expressed mRNA in the presence of chemical substance/The level of expressed mRNA in the absence of chemical substance (yeast gene YBR044C): 1.4
- The level of expressed mRNA in the presence of chemical substance/The level of expressed mRNA in the absence of chemical substance (yeast gene YBR091C): 1.0
- The level of expressed mRNA in the presence of chemical substance/The level of expressed mRNA in the absence of chemical substance (yeast gene YBR122C): 0.9
- The level of expressed mRNA in the presence of chemical substance/The level of expressed mRNA in the absence of chemical substance (yeast gene YBR185C): 1.0
- The level of expressed mRNA in the presence of chemical substance/The level of expressed mRNA in the absence of chemical substance (yeast gene YBR221C): 0.7
- The level of expressed mRNA in the presence of chemical substance/The level of expressed mRNA in the absence of chemical substance (yeast gene YBR251W): 0.9
- The level of expressed mRNA in the presence of chemical substance/The level of expressed mRNA in the absence of chemical substance (yeast gene YBR282W): 1.0
- The level of expressed mRNA in the presence of chemical substance/The level of expressed mRNA in the absence of chemical substance (yeast gene YCL057W): 1.5
- The level of expressed mRNA in the presence of chemical substance/The level of expressed mRNA in the absence of chemical substance (yeast gene YCR046C): 1.2
- The level of expressed mRNA in the presence of chemical substance/The level of expressed mRNA in the absence of chemical substance (yeast gene YCR083W): 2.8
- The level of expressed mRNA in the presence of chemical substance/The level of expressed mRNA in the absence of chemical substance (yeast gene YDL067C): 1.0
- The level of expressed mRNA in the presence of chemical substance/The level of expressed mRNA in the absence of chemical substance (yeast gene YDL181W): 1.8
- The level of expressed mRNA in the presence of chemical substance/The level of expressed mRNA in the absence of chemical substance (yeast gene YDL198C): 1.0
- The level of expressed mRNA in the presence of chemical substance/The level of expressed mRNA in the absence of chemical substance (yeast gene YDR079W): 1.1
- The level of expressed mRNA in the presence of chemical substance/The level of expressed mRNA in the absence of chemical substance (yeast gene YDR178W): 2.0
- The level of expressed mRNA in the presence of chemical substance/The level of expressed mRNA in the absence of chemical substance (yeast gene YDR231C): 1.6
- The level of expressed mRNA in the presence of chemical substance/The level of expressed mRNA in the absence of chemical substance (yeast gene YDR258C): 2.3
- The level of expressed mRNA in the presence of chemical substance/The level of expressed mRNA in the absence of chemical substance (yeast gene YDR298C): 1.2
- The level of expressed mRNA in the presence of chemical substance/The level of expressed mRNA in the absence of chemical substance (yeast gene YDR347W): 0.8
- The level of expressed mRNA in the presence of chemical substance/The level of expressed mRNA in the absence of chemical substance (yeast gene YDR377W): 1.1
- The level of expressed mRNA in the presence of chemical substance/The level of expressed mRNA in the absence of chemical substance (yeast gene YDR529C): 1.0
- The level of expressed mRNA in the presence of chemical substance/The level of expressed mRNA in the absence of chemical substance (yeast gene YEL024W): 0.9
- The level of expressed mRNA in the presence of chemical substance/The level of expressed mRNA in the absence of chemical substance (yeast gene YEL039C): 0.7
- The level of expressed mRNA in the presence of chemical substance/The level of expressed mRNA in the absence of chemical substance (yeast gene YER178W): 0.9
- The level of expressed mRNA in the presence of chemical substance/The level of expressed mRNA in the absence of chemical substance (yeast gene YFL016C): 1.0
- The level of expressed mRNA in the presence of chemical substance/The level of expressed mRNA in the absence of chemical substance (yeast gene YGL018C): 1.0
- The level of expressed mRNA in the presence of chemical substance/The level of expressed mRNA in the absence of chemical substance (yeast gene YGL187C): 0.8
- The level of expressed mRNA in the presence of chemical substance/The level of expressed mRNA in the absence of chemical substance (yeast gene YGL191W): 1.6
- The level of expressed mRNA in the presence of chemical substance/The level of expressed mRNA in the absence of chemical substance (yeast gene YGR008C): 3.0
- The level of expressed mRNA in the presence of chemical substance/The level of expressed mRNA in the absence of chemical substance (yeast gene YGR028W): 3.5
- The level of expressed mRNA in the presence of chemical substance/The level of expressed mRNA in the absence of chemical substance (yeast gene YGR062C): 1.0
- The level of expressed mRNA in the presence of chemical substance/The level of expressed mRNA in the absence of chemical substance (yeast gene YGR076C): 1.6
- The level of expressed mRNA in the presence of chemical substance/The level of expressed mRNA in the absence of chemical substance (yeast gene YGR082W): 0.9
- The level of expressed mRNA in the presence of chemical substance/The level of expressed mRNA in the absence of chemical substance (yeast gene YGR174C): 1.6
- The level of expressed mRNA in the presence of chemical substance/The level of expressed mRNA in the absence of chemical substance (yeast gene YGR244C): 1.2
- The level of expressed mRNA in the presence of chemical substance/The level of expressed mRNA in the absence of chemical substance (yeast gene YHR008C): 5.4
- The level of expressed mRNA in the presence of chemical substance/The level of expressed mRNA in the absence of chemical substance (yeast gene YIL155C): 0.7
- The level of expressed mRNA in the presence of chemical substance/The level of expressed mRNA in the absence of chemical substance (yeast gene YJL096W): 1.0
- The level of expressed mRNA in the presence of chemical substance/The level of expressed mRNA in the absence of chemical substance (yeast gene YJL102W): 0.7
- The level of expressed mRNA in the presence of chemical substance/The level of expressed mRNA in the absence of chemical substance (yeast gene YJL133W): 1.0
- The level of expressed mRNA in the presence of chemical substance/The level of expressed mRNA in the absence of chemical substance (yeast gene YJL166W): 1.5
- The level of expressed mRNA in the presence of chemical substance/The level of expressed mRNA in the absence of chemical substance (yeast gene YJL180C): 1.6
- The level of expressed mRNA in the presence of chemical substance/The level of expressed mRNA in the absence of chemical substance (yeast gene YJR045C): 1.9
- The level of expressed mRNA in the presence of chemical substance/The level of expressed mRNA in the absence of chemical substance (yeast gene YJR077C): 1.1
